Our source for the IC50 values is patent US7074801B1, “Nitrogen-containing condensed cyclic compound having a pyrazolyl group as a substituent group and pharmaceutical composition thereof” (Eisai Co., Ltd., priority 2001, dated 2006).

Counter-ions that a name gives are not always drawn. Like-named read-outs stand apart in the source and are kept apart here.

The subject of the assay is STAT6. The assay can be described thus: Inhibitory test on STAT6 activation: IL-4-induced alkali phosphatase STAT6 reporter in 293 cells stably expressing the STAT6 gene and STAT6 reporter gene. The class given is cell-based. The settings on record: HEK293, 1 ng/ml human recombinant IL-4, 16 hours, 293 cells with STAT6 reporter, read-out: Inhibitory activity IC50 (concentration at which the alkali phosphatase activity induced by IL-4 was inhibited by 50%). On the procedure: The inhibitory action of the present compound on activation of STAT6 was evaluated according to the following experiments.
1) Construction of a STAT6 Reporter Gene
An oligonucleotide of SEQ ID NO:1 in which three STAT6-binding regions on a human immunoglobulin germline E gene promoter had been linked was mixed with its complementary chain, thermally denatured and annealed, and 5′- and 3′-ends thereof were cleaved with restriction enzymes Kpn I (Code No. 1068A, Takara Shuzo) and Xba I (Code No. 1093A, Takara Shuzo) respectively, and the resulting fragment was cloned into a Kpn I/Xba I site of pUG-BGH-PLAP vector (described in Molecular Pharmacology, 49:860–873, 1996). To induce a basic transcriptional factor, a TK promoter region of herpes virus was cloned into an Xba I/Hind III (Code No. 1060A, Takara Shuzo) site of the pUG-BGH-PLAP vector. To obtain a stably expressing cell strain, a neomycin resistance gene (PGK-neo expression cassette) was integrated with an Sal I (Code No. 1080A, Takara Shuzo) of this vector. Cloning of the TK promoter and PGK-neo expression cassette was carried out according to Molecular Pharmacology, 49:860–873, 1996.
The underlined sites are a Kpn I recognition site and Xba I recognition site respectively. 2) Construction of an STAT6 Expression Vector
An oligonucleotide of SEQ ID NO:2 containing an initiation codon of STAT6 gene and an oligonucleotide of SEQ ID NO:3 containing a stop codon were used, and total RNA was prepared from human peripheral blood cells by using RNeasy Mini kit (Code No. 74104, OIAGEN). Then, cDNA was prepared by reverse transcription reaction using Takara RNA LA PCR kit (Code No. RR012A, Takara Shuzo) and then subjected to PCR reaction with primers of SEQ ID NOS:2 and 3, to amplify the STAT6 gene. • (SEQ ID NO:2) 5′-[…]-3′ The underlined site is an EcoR I recognition site. • (SEQ ID NO:3) 5′-[…]-3′ The underlined site is an Xho I recognition site.
The PCR product was digested with EcoR I (Code No. 1040A, Takara Shuzo) and Xho I (1094A, Takara Shuzo), and the digested fragment was isolated on an agarose gel. The isolated fragment was integrated into a vector fragment obtained by digesting pcDNA3.1 (+) (Code No. U790-20, Invitrogen) vector with EcoRI/Xho I.
3) Introduction of the Gene and Preparation of a Stably Expressing Cell Strain
Human fetal kidney-derived 293 cells (American Type Culture Collection), 3.0×10^5 cells, were spread on a Falcon tissue culture 6-well plate (Code No. 35-3046, Becton Dickinson) and cultured overnight. 1.5 μg of the prepared STAT6 reporter gene, 1.5 μg of the STAT6 gene and 20 μl of lipofectamine (Code No. 18324-012, GIBCO BRL) were mixed in 0.3 ml OPTI-MEM medium (Code No. 31985-070) and left at room temperature for 20 minutes. Thereafter, 1.2 ml OPTI-MEM medium was further added to the cells washed with OPTI-MEM medium not containing fetal bovine serum, and the cells were cultured for 2 hours. 1.5 ml medium containing fetal bovine serum was added thereto, and the cells were cultured for additional 19 hours. The medium was exchanged with a fresh one, and Geneticin (Code No. G-5013, SIGMA) was added at a concentration of 1 mg/ml, and the cells were cultured, and chemical-resistant cells were selected. The resulting chemical-resistant cells were floated in a medium containing 1 mg/ml Geneticin, then spread at a density of 0.5 cell/well on a 96-well microplate (Code No. 35-3072, Becton Dickinson) and cloned to give a clone expressing alkali phosphatase in response to IL-4.
4) Inhibitory Test on STAT6 Activation
The cells stably expressing the STAT6 gene and STAT6 reporter gene and expressing alkali phosphatase in response to IL-4 were spread at a density of 5000 cells/180 μl/well on a 96-well microplate (Code No. 35-3072, Becton Dickinson) and cultured overnight. […]
(In general: Reporter assays use an easily measured gene product as a stand-in for the process of interest.)

Consider `Cc1n[nH]cc1-c1ccc2ncc(-c3ccc(C(=O)NCCc4ccccn4)c(F)c3)n2c1` [Example 648, N1-[2-(2-Pyridyl)ethyl]-2-fluoro-4-[6-(3-methyl-1H-4-pyrazolyl)imidazo[1,2-a]pyridin-3-yl] benzamide], for which the IC50 (Table 1) was 10 to 100 nM. Turning to `O=C(Nc1nc(C2CC2)cs1)c1ccc(-c2cnc3ccc(-c4cn[nH]c4)cn23)cc1F` [Example 652, N1-(4-Cyclopropyl-1,3-thiazol-2-yl)-2-fluoro-4-[6-(1H-4-pyrazolyl)imidazo[1,2-a]pyridin-3-yl]benzamide dihydrochloride], under “Table 1”, the IC50 was below 10 nM. As to `Cc1cnc(NC(=O)c2ccc(-c3cnc4ccc(-c5cn[nH]c5)cn34)nc2)s1` [Example 655, N3-(5-Methyl-1,3-thiazol-2-yl)-6-[6-(1H-4-pyrazolyl)-imidazo[1,2-a]pyridin-3-yl]nicotinic acid amide trihydrochloride], the IC50 (Table 1) fell in the range of 10 to 100 nM. For the compound `O=C(NC1(c2ccc(F)cc2F)CC1)c1ccc(-c2cnc3ccc(-c4cn[nH]c4)cn23)cc1F` [Example 661, N1-[1-(2,4-Difluorophenyl)cyclopropyl]-2-fluoro-4-[6-(1H-4-pyrazolyl)imidazo[1,2-a]pyridin-3-yl]benzamide hydrochloride], where the note is “Table 1”, the IC50 is below 10 nM. For the compound `O=C(NC1(c2ccc(F)cc2)CC1)c1ccc(-c2cnc3ccc(-c4cn[nH]c4)cn23)cc1F` [Example 663, N1-[1-(4-Fluorophenyl)cyclopropyl]-2-fluoro-4-[6-(1H-4-pyrazolyl)imidazo[1,2-a]pyridin-3-yl]benzamide hydrochloride], the IC50 (Table 1) was below 10 nM.

For the compound `O=C(Nc1nc2ccc(F)cc2s1)c1ccc(-c2cnc3ccc(-c4cn[nH]c4)cn23)cc1F` [Example 669, N1-(6-Fluoro-1,3-benzothiazol-2-yl)-2-fluoro-4-[6-(1H-4-pyrazolyl)imidazo[1,2-a]pyridin-3-yl]benzamide dihydrochloride], the IC50 (Table 1) is below 10 nM. For the compound `O=C(Nc1nc2ccc(OC(F)(F)F)cc2s1)c1ccc(-c2cnc3ccc(-c4cn[nH]c4)cn23)cc1F` [Example 670, N1-[6-(Trifluoromethoxy)-1,3-benzothiazol-2-yl]-2-fluoro-4-[6-(1H-4-pyrazolyl)imidazo[1,2-a]pyridin-3-yl]benzamide dihydrochloride], the IC50 (Table 1) lay in the range of 10 to 100 nM. With `C[C@H](NC(=O)c1ccc(-c2cnc3ccc(-c4cn[nH]c4)cn23)cc1F)C(=O)c1ccc(F)cc1` [Example 672, N1-[(1S)-2-(4-Fluorophenyl)-1-methyl-2-oxoethyl]-2-fluoro-4-[6-(1H-4-pyrazolyl)imidazo[1,2-a]pyridin-3-yl]benzamide hydrochloride], under “Table 1”, the IC50 is below 10 nM. As for `Cc1ccc(C(=O)C(C)(C)NC(=O)c2ccc(-c3cnc4ccc(-c5cn[nH]c5)cn34)cc2F)c(F)c1` [Example 674, hydrochloride], the IC50 (Table 1) is below 10 nM. Consider `CCc1ccc(C(=O)C(C)(C)NC(=O)c2ccc(-c3cnc4ccc(-c5cn[nH]c5)cn34)cc2F)cc1` [Example 676, N1-[2-(4-Ethylphenyl)-1,1-dimethyl-2-oxyethyl]-2-fluoro-4-[6-(1H-4-pyrazolyl)imidazo[1,2-a]pyridin-3-yl]benzamide hydrochloride], for which the IC50 (Table 1) was 10 to 100 nM. On to `O=C(Nc1ccc(F)cc1F)c1ccc(-c2cnc3ccc(-c4cn[nH]c4)cn23)cc1F` [Example 678, N1-(2,4-Difluorophenyl)-2-fluoro-4-[6-(1H-4-pyrazolyl)-imidazo[1,2-a]pyridin-3-yl]benzamide hydrochloride], for which, for the setting “Table 1”, the IC50 is below 10 nM.

Take `O=C(Nc1ccc(Cl)cn1)c1ccc(-c2cnc3ccc(-c4cn[nH]c4)cn23)cc1F` [Example 680, N1-(5-Chloro-2-pyridyl)-2-fluoro-4-[6-(1H-4-pyrazolyl)-imidazo[1,2-a]pyridin-3-yl]benzamide dihydrochloride]: the IC50 (Table 1) was below 10 nM. Turning to `Cc1ccnc(NC(=O)c2ccc(-c3cnc4ccc(-c5cn[nH]c5)cn34)cc2F)c1` [Example 681, N1-(4-Methyl-2-pyridyl)-2-fluoro-4-[6-(1H-4-pyrazolyl)-imidazo[1,2-a]pyridin-3-yl]benzamide dihydrochloride], where the note is “Table 1”, the IC50 was below 10 nM. Take `Cc1cc(NC(=O)c2ccc(-c3cnc4ccc(-c5cn[nH]c5)cn34)cc2F)on1` [Example 688, N1-(3-Methylisoxazol-5-yl)-2-fluoro-4-[6-(1H-4-pyrazolyl)-imidazo[1,2-a]pyridin-3-yl]benzamide dihydrochloride]: the IC50 (Table 1) was below 10 nM. With `C=Cc1ccc(NC(=O)c2ccc(-c3cnc4ccc(-c5cn[nH]c5)cn34)cc2F)nc1` [Example 689, N1-(5-Vinyl-2-pyridyl)-2-fluoro-4-[6-(1H-4-pyrazolyl)-imidazo[1,2-a]pyridin-3-yl]benzamide dihydrochloride], the IC50 (Table 1) was below 10 nM. Consider `Fc1cc(Cl)ccc1-c1nc(-c2ccc(-c3cnc4ccc(-c5cn[nH]c5)cn34)cc2)no1` [Example 697, 5-(4-Chloro-2-fluorophenyl)-3-{4-[6-(1H-4-pyrazolyl)-imidazo[1,2-a]pyridin-3-yl]-1,2,4-oxadiazole hydrochloride], for which the IC50 (Table 1) was 10 to 100 nM. As for `O=C(Nc1ccc(-c2cnc3ccc(-c4cn[nH]c4)cn23)cc1F)NC1CCCCC1` [Example 698, N-Cyclohexyl-N′-(2-fluoro-4-[6-(1H-4-pyrazolyl)imidazo[1,2-a]pyridin-3-yl]phenyl}urea hydrochloride], the IC50 (Table 1) was 10 to 100 nM. As to `CC(C)NC(=O)Nc1ccc(-c2cnc3ccc(-c4cn[nH]c4)cn23)cc1F` [Example 699, N-12-Fluoro-4-[6-(1H-4-pyrazolyl)imidazo[1,2-a]pyridin-3-yl] phenyl}-N′-isopropylurea hydrochloride], the IC50 (Table 1) was in the range of 10 to 100 nM. In the case of `NS(=O)(=O)c1ccc(NC(=O)c2ccc(-c3cnc4ccc(-c5cn[nH]c5)cn34)cc2F)cc1` [Example 700, N1-[4-(Aminosulfonyl)phenyl]-2-fluoro-4-[6-(1H-4-pyrazolyl)imidazo[1,2-a]pyridin-3-yl]benzamide hydrochloride], the IC50 (Table 2) was 10 to 100 nM. As to `CS(=O)(=O)c1ccccc1NC(=O)c1ccc(-c2cnc3ccc(-c4cn[nH]c4)cn23)cc1F` [Example 701, N1-[2-(Methylsulfonyl)phenyl]-2-fluoro-4-[6-(1H-4-pyrazolyl)imidazo[1,2-a]pyridin-3-yl]benzamide hydrochloride], under “Table 2”, the IC50 fell in the range of 10 to 100 nM.

With `O=C(Nc1ccc(-c2cnc3ccc(-c4cn[nH]c4)cn23)cc1F)c1ccc(F)cc1` [Example 705, N1-{2-Fluoro-4-[6-(1H-4-pyrazolyl)imidazo[1,2-a]pyridin-3-yl]phenyl}-4-fluorobenzamide hydrochloride], the IC50 (Table 2) lay within 10 to 100 nM. For the compound `O=C(NCc1cccc(OC(F)F)c1)c1ccc(-c2cnc3ccc(-c4cn[nH]c4)cn23)cc1F` [Example 706, N1-[3-(Difluoromethoxy)benzyl]-2-fluoro-4-[6-(1H-4-pyrazolyl)imidazo[1,2-a]pyridin-3-yl]benzamide hydrochloride], the IC50 (Table 2) was below 10 nM.

In the case of `CC(NC(=O)c1ccc(-c2cnc3ccc(-c4cn[nH]c4)cn23)cc1F)c1ccccn1` (centres unmarked) [Example 707, N1-[1-(2-Pyridyl)ethyl]-2-fluoro-4-[6-(1H-4-pyrazolyl)-imidazo[1,2-a]pyridin-3-yl]benzamide dihydrochloride], where the note is “Table 2”, the IC50 is 10 to 100 nM.
